Data published in patent publication US10414775B2 (Merck Sharp & Dohme Corp., priority 2016, dated 2019).

Each compound was assayed against T1, Human CYP8B1 (Homo sapiens, UniProt Q9UNU6) (assay: Human Cyp8B1 Liver Microsome Assay). Details: human liver microsomes; substrate 7α-hydroxy-4-cholesten-3-one, NADPH; 30 min pre-incubation, 45 min reaction; RapidFire MS readout.
T1 construct: tissue Xenotech; host or cells: human liver microsomes
T1 sequence (Q9UNU6 1-501): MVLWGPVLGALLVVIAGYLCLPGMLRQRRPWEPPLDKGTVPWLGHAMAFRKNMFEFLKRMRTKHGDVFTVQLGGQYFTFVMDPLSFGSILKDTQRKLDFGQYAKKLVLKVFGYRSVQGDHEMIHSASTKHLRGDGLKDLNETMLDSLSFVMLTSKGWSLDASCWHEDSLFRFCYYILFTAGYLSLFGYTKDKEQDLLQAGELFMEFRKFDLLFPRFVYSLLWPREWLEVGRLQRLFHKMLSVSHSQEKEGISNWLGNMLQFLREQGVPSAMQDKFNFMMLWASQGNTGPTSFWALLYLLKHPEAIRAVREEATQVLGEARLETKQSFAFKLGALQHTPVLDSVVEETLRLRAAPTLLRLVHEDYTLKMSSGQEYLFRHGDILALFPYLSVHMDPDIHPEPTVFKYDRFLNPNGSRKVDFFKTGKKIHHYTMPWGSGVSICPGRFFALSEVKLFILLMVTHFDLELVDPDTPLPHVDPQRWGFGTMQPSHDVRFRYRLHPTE
Assay type: biochemical
Method: Human Cyp8B1 Liver Microsome Assay To a 384 well polypropylene plate (Corning 3656), 250 nl of inhibitor in 100% DMSO (1.25% final DMSO concentration) was pre-plated using an Echo liquid handler (Labcyte Inc.). Human liver microsomes (Xenotech) were diluted in of 0.1 M phosphate buffer, pH 7.4, at a concentration of 65 μg/ml and 15 μL was added to the 384 well plate. The plates were incubated at ambient room temperature for 30 minutes. After pre-incubation with inhibitor, the reaction was initiated by adding 5 μl of substrate solution (4.0 μM 7α-hydroxy-4-cholesten-3-one(Toronto Research Chemicals), 2 mM of NADPH (Sigma), 0.1 M phosphate buffer (pH 7.4). The reaction was carried out for 45 minutes at ambient room temperature and was quenched by the addition of 50 μl of acetonitrile+0.1% vol/vol formic acid (FA)+300 nM 7α-hydroxy-4-cholesten-3-one-d7 (Toronto Research Chemicals). The plates were sealed and centrifuged at 3000 rpm for 5 minutes. Plates were loaded onto the Agilent RapidFire RF300 HTMS system, wherein samples were sipped for 600 ms, and the sip sensor detection signals the diversion of sample from the loop onto a C4 solid phase extraction (SPE) cartridge, where salts are washed off for 2500 ms with a mobile phase of water with 0.1% vol/vol FA at a flow rate of 1.5 ml/min. The column path is switched, and the sample is eluted off the cartridge and flowed into the mass spectrometer for 3000 ms with a mobile phase of acetonitrile and 0.1% vol/vol FA at a flow rate of 1.25 ml/min. The aspirator tip was washed separately with water and acetonitrile between sample aspirations (each for 600 ms) to minimize carryover contamination. Mass spectrometry was carried out using a Sciex API4000 triple quadrupole mass spectrometer (Applied Biosystems, Concord, ON, Canada) equipped with electrospray ionization (ESI) operated in the positive-ion mode. The product 7α, 12α-dihydroxy-4-cholesten-3-one and internal standard 7α-hydroxy-4-cholsten-3-one-d7 were detected using multiple reaction monitoring (MRM) with Q1/Q3 transitions at m/z 417.3 to 381.3 and m/z 408.3 to 390.3, respectively, with a dwell time of 100 ms and a collision energy of 24 V for each transition. The mass spectrometer used an ESI voltage of 5000 V and a source temperature of 650° C. Extracted ion chromatograms for each transition were integrated and processed using the RapidFire Integrator software. The data for each well were normalized by monitoring product conversion with the ratio of AUCproduct/(AUCinternal standard). The data was then fitted to a four parameter logistic fit using ActivityBase Software to calculate an IC50 of the inhibitor.

Structure (SMILES)	IC50
C[C@@H]1CN(c2ccnc3ccc(Cl)cc23)CC[C@@H]1C(=O)N1CCn2c(nnc2C(F)(F)F)C1 (single isomer, unassigned) [Example 11a]	3.5 nM
C[C@H]1CN(c2ccnc3ccc(Cl)cc23)CC[C@H]1C(=O)N1CCn2c(nnc2C(F)(F)F)C1 (single isomer, unassigned) [Example 11b]	1180 nM
C[C@H](O)c1ccc2c(N3CC[C@H](C(=O)N4CCn5c(nnc5C(F)(F)F)C4)[C@H](C)C3)c(Cl)cnc2c1 (single isomer, unassigned) [Example 44a]	0.34 nM
C[C@@H]1CN(c2c(Cl)cnc3cc([C@@H](C)O)ccc23)CC[C@@H]1C(=O)N1CCn2c(nnc2C(F)(F)F)C1 (single isomer, unassigned) [Example 44b]	1.2 nM
CCOC(=O)c1cnc2ccc(F)cc2c1N1CC[C@H](C(=O)N2CCn3c(nnc3C(F)(F)F)C2)[C@H](C)C1 [Example 1, ethyl 6-fluoro-4-[(3S,4S)-3-methyl-4-{[3-(trifluoromethyl)-5,6-dihydro[1,2,4]triazolo[4,3-a]pyrazin-7(8H)-yl]carbonyl}piperidin-1-yl]quinoline-3-carboxylate]	3680 nM
C[C@@H]1CN(c2ccnc3cc(Cl)cnc23)CC[C@@H]1C(=O)N1CCn2c(nnc2C(F)(F)F)C1 [Example 2, ((3S,4S)-1-(7-chloro-1,5-naphthyridin-4-yl)-3-methylpiperidin-4-yl)(3-(trifluoromethyl)-5,6-dihydro-[1,2,4]triazolo[4,3-a]pyrazin-7(8H)-yl)methanone]	18 nM
COc1ccc2c(N3CC[C@H](C(=O)N4CCn5c(nnc5C(F)(F)F)C4)[C@H](C)C3)c(Cl)cnc2c1 [Example 3, ((3S,4S)-1-(3-chloro-7-methoxyquinolin-4-yl)-3-methylpiperidin-4-yl)(3-(trifluoromethyl)-5,6-dihydro-[1,2,4]triazolo[4,3-a]pyrazin-7(8H)-yl)methanone]	0.2 nM
C[C@@H]1CN(c2c(Cl)cnc3cc(F)ccc23)CC[C@@H]1C(=O)N1CCn2c(nnc2C(F)(F)F)C1 [Example 4, ((3S,4S)-1-(3-chloro-7-fluoroquinolin-4-yl)-3-methylpiperidin-4-yl)(3-(trifluoromethyl)-5,6-dihydro-[1,2,4]triazolo[4,3-a]pyrazin-7(8H)-yl)methanone]	0.6 nM
C[C@@H]1CN(c2c(C(F)(F)F)cnc3ccccc23)CC[C@@H]1C(=O)N1CCn2c(nnc2C(F)(F)F)C1 [Example 5, ((3S,4S)-3-methyl-1-(3-(trifluoromethyl)quinolin-4-yl)piperidin-4-yl)(3-(trifluoromethyl)-5,6-dihydro-[1,2,4]triazolo[4,3-a]pyrazin-7(8H)-yl)methanone]	1 nM
C[C@@H]1CN(c2c(Cl)cnc3c(F)cccc23)CC[C@@H]1C(=O)N1CCn2c(nnc2C(F)(F)F)C1 [Example 6, ((3S,4S)-1-(3-chloro-8-fluoroquinolin-4-yl)-3-methylpiperidin-4-yl)(3-(trifluoromethyl)-5,6-dihydro-[1,2,4]triazolo[4,3-a]pyrazin-7(8H)-yl)methanone]	0.9 nM
C[C@@H]1CN(c2c(C(F)F)cnc3c(F)c(Cl)ccc23)CC[C@@H]1C(=O)N1CCn2c(nnc2C(F)(F)F)C1 [Example 7, ((3S,4S)-1-(7-chloro-3-(difluoromethyl)-8-fluoroquinolin-4-yl)-3-methylpiperidin-4-yl)(3-(trifluoromethyl)-5,6-dihydro-[1,2,4]triazolo[4,3-a]pyrazin-7(8H)-yl)methanone]	0.7 nM
COc1cnc2c(N3CC[C@H](C(=O)N4CCn5c(nnc5C(F)(F)F)C4)[C@H](C)C3)c(Cl)cnc2c1 [Example 8, ((3S,4S)-1-(3-chloro-7-methoxy-1,5-naphthyridin-4-yl)-3-methylpiperidin-4-yl)(3-(trifluoromethyl)-5,6-dihydro-[1,2,4]triazolo[4,3-a]pyrazin-7(8H)-yl)methanone]	1.2 nM
